Measured values as given in US10548911B2, “Small molecule anti-scarring agents” (UNIVERSITY OF ROCHESTER, priority 2014, dated 2020).
“Also recorded” adds a separate entry of the source.

Legend:
[1] = tested on: TGFβ-induced luciferase activity; assay: Spectrum collection small molecule screen with TGFβ-dependent SBE-luciferase HEK293FT reporter cell line; type: cell-based, human; settings: HEK293FT-luc reporter line
Description: The minimal thymidine kinase promoter was amplified by PCR with the following forward and reverse primers, of which the forward primer contained four tandem Smad binding elements (SBE):
Restriction sites in the primers are underlined. The resultant PCR product was TOPO cloned (Invitrogen) and the correct insert was verified by DNA sequencing. The construct was digested with SacI-HindIII and the SBEx4-TK insert was purified and ligated with the pGL4.15 vector (Promega). Clones were verified by restriction digest and then tested for TGFβ responsiveness in transient transfections of 293FT cells. […] Clones were selected by treatment with 200 μg/ml hygromycin. 20 clones were selected and screened for TGFβ-induced luciferase activity. One clone that was robustly responsive was subsequently used in the small molecule screen.
Excessive scarring results from the formation of too many myofibroblasts and the production of too much extracellular matrix material such as collagen. Since TGFβ drives the formation of myofibroblasts in part through activating the Smad pathway, a reporter construct was designed to serve as a measure of TGFβ-induced Smad activity (FIG. 1A). Four tandem Smad binding elements (SBE) were inserted upstream of the minimal thymidine kinase promoter. The SBEx4-TK promoter was inserted into the pGL4.15 vector which contains a destabilized firefly luciferase gene and the hygromycin resistance gene. The pSBEx4-TK-luc-Hygro plasmid was then introduced into HEK293FT cells by lipofection. Stable clones were generated and screened for TGFβ induced luciferase activity. One clone was selected that consistently gave a 15 to 20-fold induction of luciferase activity when cells were treated with TGFβ for 24 hours (FIG. 1B).
To find compounds that inhibit TGFβ activity and thus may be novel anti-scarring compounds, the Spectrum collection of 2,300 small molecules was screened with the cell line. […] Salinomycin, an antibiotic produced from Streptomyces albus is used as coccidiostat agent in animal feed (Knirschova et al., “Multiple regulatory genes in the salinomycin biosynthetic gene cluster of Streptomyces albus CCM 4719,” Folia Microbiologica 52:359-365 (2007), which is hereby incorporated by reference in its entirety). […] Thus, further investigation was made to assess the use of salinomycin as an anti-scarring agent.

[2] = tested on: TGFβ-induced SBE-luciferase activity; assay: Secondary dual luciferase screen (SBE-luciferase normalized to constitutive Renilla luciferase); type: cell-based, human; settings: secondary dual luciferase screen, several doses (low micromolar)
Experimental: FIG. 1A is a diagram of Smad-dependent reporter construct. Four tandem Smad binding elements (SBE) were inserted upstream of the minimal Thymidine Kinase (TK) promoter. Downstream of the promoter is a destabilized version of the firefly luciferase gene (luc2P) present in the pLuc2P-Hygro plasmid which also harbors the hygromycin resistance gene. The plasmid was introduced into HEK293FT cell line and individual colonies were selected with hygromycin (200 ug/ml) to develop a Smad/TGFβ dependent-luciferase reporter cell line. FIG. 1B is a graph illustrating the response of the reporter cell line to 1 ng/ml treatment of TGFβ for 20 hours, which results in an approximately 20-fold increase of luciferase activity.
They are: Benzbromarone (“BZB”), Bithionate sodium (“BTS”), Piplartine (piperlongumine) (“PPT”), Amsacrine (“ASC”), and Alexidine (“AXD”). A secondary luciferase screening assay was performed to determine specificity and dose responsiveness of these compounds in comparison to salinomycin (“SNC”). The secondary screen utilizes dual luciferase technology that includes the above mentioned SBE-luciferase in addition to a Renilla luciferase that is under control of the constitutive SV40 promoter. Therefore the SBE-luciferase activity can be normalized to the Renilla luciferase activity to control for toxicity and non-specific effects. The secondary screen can thus be used to remove small molecules that display overt toxicity and/or non-specific effects on the primary assay.

[3] = tested on: TGFβ-dependent myofibroblast formation in primary human fibroblasts; assay: Myofibroblast formation assay in primary human fibroblasts (morphology, Western blot) for Spectrum hits; type: cell-based; settings: for α-SMA and calponin expression in human fibroblasts: FIG. 14 lanes: PPT 1, 5 uM, AXD 0.1, 1 uM, SNC 100 nM, 1 uM; for α-SMA and calponin expression in human fibroblasts / TGFβ-dependent αSMA and calponin (marker) expression / myofibroblast formation / phenotype: BTS, ASC; for TGFβ-dependent αSMA and calponin (marker) expression: higher dose: PPT 5 μM; for TGFβ-dependent αSMA and calponin (marker) expression / myofibroblast formation / phenotype: AXD 1 μM; for myofibroblast formation / phenotype: lowest effective dose from secondary screen: PPT 5 μM, SNC 0.1 μM, TGFβ 1 ng/ml, 72 hours
Experimental: Using the lowest effective dose from the secondary screening assay, PPT (5 μM), ASC (1 μM), BTS (1 μM), and AXD (1 μM) were compared to 0.1 μM SNC using primary human fibroblasts (FIG. 13). The myofibroblast formation assay consists of the following protocol: fibroblasts are treated with the aforementioned small molecules and treated with TGFβ (1 ng/ml) for 72 hours. The cells were then either photographed for morphological analysis or collected, lysed and analyzed by Western blot for the myofibroblast markers alpha-smooth muscle actin (αSMA) and calponin. β-tubulin was used as a loading control.
PPT was used at 1 and 5 μM (lanes 3 and 4), BTS was used at 0.1 and 1 μM (lanes 5 and 6), ASC was used at 0.1 and 1 μM (lanes 7 and 8), SNC was used at 100 nM and 1 μM (lanes 9 and 10), and AXD was used at 0.1 and 1 μM (lanes 11 and 12).

[4] = tested on: primary human orbital fibroblasts; assay: TGFβ-induced myofibroblast formation, αSMA Western blot, primary human orbital fibroblasts; settings: for overt toxicity / TGFβ-induced myofibroblast differentiation (αSMA expression): 2-500 μM
[5] = tested on: TGFβ-induced myofibroblast formation in human fibroblasts; assay: Western blot of myofibroblast markers αSMA and calponin in TGFβ-treated human (TED orbital) fibroblasts; type: cell-based; settings: 250 nM, TGFβ, 72 hours
Experimental: TED fibroblasts were treated with TGFβ (1 ng/ml) in the presence or absence of 10-250 nM salinomycin for 72 hours to allow formation of myofibroblasts. After 72 hours, cells were harvested and analyzed by Western blot. As expected, the fibroblasts robustly responded to TGFβ, expressing high levels of αSMA and calponin (FIG. 2A). […] At 50 nM salinomycin, expression of αSMA was reduced by 4-fold over TGFβ treatment alone. Furthermore, at 250 nM salinomycin, αSMA expression was reduced by approximately 16-fold, to levels at or below untreated fibroblasts. […] Another key role of myofibroblasts in scar formation is the production of collagen. Whether salinomycin could block myofibroblast collagen production was assessed. Cells were treated with TGFβ and salinomycin as above and after 72 hours, culture medium was collected and analyzed for collagen levels using a specific collagen I antibody and slot blot analysis.
To test these four compounds, human fibroblasts were treated with TGFβ in the absence or presence of 250 nM of either salinomycin, narasin, clioquinol or monensin for 72 hours. After treatment, cell lysates were harvested and analyzed for the presence of the myofibroblast markers, αSMA and calponin (FIG. 3B).

[6] = tested on: human fibroblasts; assay: BrdU incorporation assay (cell proliferation); type: cell-based
Experimental: Human fibroblasts were seeded on a 96-well plate at a density of 1×10^5 cells/well. Cells were treated in triplicate. Cell proliferation was determined using the bromodeoxyuridine (BrdU) assay following manufacturer's instructions. Briefly, cells were treated with a BrdU label at a 1:2000 dilution for 24 h after the initial 72 h treatment with TGFβ+/−drugs. BrdU incorporation was measured using the BrdU Cell Proliferation Assay kit (Calbiochem, San Diego, Calif.) at 450-540 nm using a Varioskan microplate reader.
While salinomycin and other polyether ionophores blocked myofibroblast formation, it was next assessed whether these effects were a result of toxicity and/or due to a block of cell proliferation. Though the treatment doses are relatively low (efficacy in 100-250 nM range), a loss of cell viability could still be a possibility. To test this, human fibroblasts were treated with vehicle (DMSO), 50-250 nM salinomycin alone, TGFβ or TGFβ plus 250 nM salinomycin. As a positive control, fibroblasts were treated with the cytotoxic drug, puromycin. Treated cells were cultured in the presence of alamar blue reagent, which measures mitochondrial oxidation-reduction (REDOX) potential and serves as a quantitative viability sensor. After 72 hours of culture, alamar blue fluorescence was measured to assay cell viability (FIG. 4A). […] It was also tested whether salinomycin affects basal fibroblast proliferation. To address this, cells were treated with vehicle or 250 nm of either salinomycin or narasin for 24 hours in the presence of bromodeoxyuridine (BrdU) to measure cell proliferation ([…], first three bars). […] BrdU was also added to cells treated with TGFβ in the presence or absence of 250 nM salinomycin or narasin (FIG. 4B, last three bars). As expected, TGFβ induced human fibroblast proliferation. Remarkably, both salinomycin and narasin were able to beneficially block TGFβ induced proliferation by 4 to 5 fold, without affecting basal proliferation levels.

Row | Compound | inhibition of TGFβ-induced luciferase activity, initial screen [1] | inhibition of luciferase expression, dose responsiveness [2] | α-SMA and calponin expression in human fibroblasts [3] | TGFβ-dependent αSMA and calponin (marker) expression [3] | myofibroblast formation / phenotype [3] | other results
1 | CCCCC(CC)CNC(=N)NC(=N)NCCCCCCNC(=N)NC(=N)NCC(CC)CCCC (stereo not shown) [AXD, alexidine] | inhibit TGFβ-induced luciferase | substantially inhibited luciferase expression; also recorded: strong luciferase inhibition | inhibit β-dependent α-SMA and calponin expression | inhibited marker expression | inhibit myofibroblast phenotype; also recorded: inhibits myofibroblast formation | expression of Thy1 ([3]; high dose, 1 μM): did inhibit Thy1
2 | COc1ccc2[nH]c([S+]([O-])Cc3ncc(C)c(OC)c3C)nc2c1 (racemic) [omeprazole] |  |  |  |  |  | αSMA expression ([4]; 100 μM): sub-baseline levels; overt toxicity [4]: No overt toxicity was observed; TGFβ-induced myofibroblast differentiation (αSMA expression) [4]: inhibited TGFβ-induced myofibroblast differentiation; also recorded: inhibits human orbital fibroblast to myofibroblast differentiation
3 | CC[C@@H](C(=O)O)[C@@H]1O[C@@H]([C@@H](C)[C@H](O)[C@H](C)C(=O)[C@H](CC)[C@H]2O[C@]3(C=C[C@@H](O)[C@]4(CC[C@@](C)([C@H]5CC[C@](O)(CC)[C@H](C)O5)O4)O3)[C@H](C)C[C@@H]2C)[C@@H](C)C[C@@H]1C [narasin] |  |  |  |  |  | expression of αSMA and calponin [5]: inhibited expression of αSMA and calponin; TGFβ induced proliferation (BrdU incorporation) ([6]; 250 nM plus TGFβ): significantly blocked TGFβ induced proliferation; basal fibroblast proliferation (BrdU incorporation) ([6]; 250 nM, without TGFβ): did not affect basal fibroblast proliferation; also recorded: Neither salinomycin nor narasin blocked basal fibroblast proliferation
4 | Oc1c(Cl)cc(Cl)cc1Sc1cc(Cl)cc(Cl)c1O [BTS, bithionate sodium] | inhibit TGFβ-induced luciferase | substantially inhibited luciferase expression; also recorded: strong luciferase inhibition | inhibit β-dependent α-SMA and calponin expression | inhibited marker expression | inhibit myofibroblast phenotype; also recorded: inhibits myofibroblast formation | 
5 | CCc1oc2ccccc2c1C(=O)c1cc(Br)c(O)c(Br)c1 [BZB, benzbromarone] | inhibit TGFβ-induced luciferase | All but BZB substantially inhibited luciferase expression |  |  |  | 
6 | CC(C)C(=O)Nc1ccc([N+](=O)[O-])c(C(F)(F)F)c1 [flutamide, Flutamide] |  |  |  |  |  | overt toxicity [4]: No overt toxicity was observed; TGFβ-induced myofibroblast differentiation (αSMA expression) [4]: inhibited TGFβ-induced myofibroblast differentiation; also recorded: inhibits human orbital fibroblast to myofibroblast differentiation
7 | COc1cc(NS(C)(=O)=O)ccc1Nc1c2ccccc2nc2ccccc12 [ASC, amsacrine] | inhibit TGFβ-induced luciferase | substantially inhibited luciferase expression; also recorded: strong luciferase inhibition | inhibit β-dependent α-SMA and calponin expression | inhibited marker expression | inhibit myofibroblast phenotype; also recorded: inhibits myofibroblast formation | 
8 | COc1cc(/C=C/C(=O)N2CCC=CC2=O)cc(OC)c1OC [PPT, piplartine (piperlongumine)] | inhibit TGFβ-induced luciferase | substantially inhibited luciferase expression; also recorded: strong luciferase inhibition | inhibit β-dependent α-SMA and calponin expression | inhibited marker expression | inhibit myofibroblast phenotype; also recorded: inhibits myofibroblast formation | 
